A word on the IC50: it is the concentration that inhibits the measured activity by half. A word on the Ki: it is a measure of affinity in units of concentration, obtained from inhibition or displacement.

One data set concerns the target T1, Cathepsin G (Homo sapiens, UniProt P08311).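 Further: inhibition of Cathepsin G enzyme activity, tested on an AMC-conjugated peptide substrate; in other assays of this panel Not Active means under 50% inhibition at 10 µM.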
T1 sequence (P08311 whole entry): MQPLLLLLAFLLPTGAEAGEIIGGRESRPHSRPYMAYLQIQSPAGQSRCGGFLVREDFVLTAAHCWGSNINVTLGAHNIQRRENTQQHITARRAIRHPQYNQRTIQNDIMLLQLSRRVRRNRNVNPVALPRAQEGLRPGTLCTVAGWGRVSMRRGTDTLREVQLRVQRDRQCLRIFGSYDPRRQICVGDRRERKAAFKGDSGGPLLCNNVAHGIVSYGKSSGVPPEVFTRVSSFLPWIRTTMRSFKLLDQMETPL
The format is tissue-based. The following applies: neutrophil.

The target in the next data set is Cytochrome P450 3A4 (Homo sapiens, UniProt P08684). The following applies: bti-tn-5b1-4. Further: in other assays of this panel Not Active means under 50% inhibition at 10 µM.
Data set [1] has as its target 5-hydroxytryptamine receptor 4 (Cavia porcellus, UniProt O70528). The format is cell membranes, Dunkin-Hartley, Striatum, Membrane. Further: in other assays of this panel Not Active means under 50% inhibition at 10 µM.
In the next data set the target is Melanocortin receptor 3 (Homo sapiens, UniProt P41968). The format is cell membranes, Membrane. The conditions noted are these: hek293. Further: in other assays of this panel Not Active means under 50% inhibition at 10 µM.
In data set [2] the target is T2, Alpha-2A adrenergic receptor (Homo sapiens, UniProt P08913). Further: in other assays of this panel Not Active means under 50% inhibition at 10 µM.
T2 sequence (P08913 whole entry): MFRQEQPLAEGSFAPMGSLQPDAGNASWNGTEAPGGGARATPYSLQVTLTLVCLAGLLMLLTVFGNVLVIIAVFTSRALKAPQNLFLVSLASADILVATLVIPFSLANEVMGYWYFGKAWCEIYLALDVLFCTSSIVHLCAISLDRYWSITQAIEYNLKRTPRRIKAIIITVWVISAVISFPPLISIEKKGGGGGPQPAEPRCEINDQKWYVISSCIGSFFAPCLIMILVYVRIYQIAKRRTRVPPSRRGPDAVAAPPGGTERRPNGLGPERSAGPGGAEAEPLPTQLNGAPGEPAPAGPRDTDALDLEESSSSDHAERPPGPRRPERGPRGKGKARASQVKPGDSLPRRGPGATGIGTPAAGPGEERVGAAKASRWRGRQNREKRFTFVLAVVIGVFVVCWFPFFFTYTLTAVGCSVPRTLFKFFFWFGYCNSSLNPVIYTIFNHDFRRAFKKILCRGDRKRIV
The format is cell membranes, Sf9, Membrane. The following applies: sf9.

The target in data set [3] is Sigma non-opioid intracellular receptor 1 (Homo sapiens, UniProt Q99720). Description: DRUGMATRIX: Sigma1 radioligand binding (ligand: [3H] Haloperidol). The format is cell membranes, Jurkat, Membrane. The following applies: jurkat; Not Active = under 50% inhibition at 10 µM.

Each structure is given as a SMILES string.

Sequence of Sigma non-opioid intracellular receptor 1 (Q99720 whole entry): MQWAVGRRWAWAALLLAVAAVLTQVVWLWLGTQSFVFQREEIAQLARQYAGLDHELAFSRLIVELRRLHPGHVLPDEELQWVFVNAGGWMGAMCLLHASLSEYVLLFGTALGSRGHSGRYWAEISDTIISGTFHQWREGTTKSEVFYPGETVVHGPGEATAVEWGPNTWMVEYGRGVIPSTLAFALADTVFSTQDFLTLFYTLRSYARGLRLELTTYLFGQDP
Sequence of Melanocortin receptor 3 (P41968 whole entry): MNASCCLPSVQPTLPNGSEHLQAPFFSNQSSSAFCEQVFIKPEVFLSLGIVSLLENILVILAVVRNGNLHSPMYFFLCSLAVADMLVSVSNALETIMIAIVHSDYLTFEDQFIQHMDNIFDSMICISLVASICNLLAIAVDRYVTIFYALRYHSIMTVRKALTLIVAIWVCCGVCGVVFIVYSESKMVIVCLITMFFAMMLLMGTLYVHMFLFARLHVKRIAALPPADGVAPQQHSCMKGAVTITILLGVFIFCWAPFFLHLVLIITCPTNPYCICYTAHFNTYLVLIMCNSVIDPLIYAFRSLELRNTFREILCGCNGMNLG
Sequence of Cytochrome P450 3A4 (P08684 whole entry): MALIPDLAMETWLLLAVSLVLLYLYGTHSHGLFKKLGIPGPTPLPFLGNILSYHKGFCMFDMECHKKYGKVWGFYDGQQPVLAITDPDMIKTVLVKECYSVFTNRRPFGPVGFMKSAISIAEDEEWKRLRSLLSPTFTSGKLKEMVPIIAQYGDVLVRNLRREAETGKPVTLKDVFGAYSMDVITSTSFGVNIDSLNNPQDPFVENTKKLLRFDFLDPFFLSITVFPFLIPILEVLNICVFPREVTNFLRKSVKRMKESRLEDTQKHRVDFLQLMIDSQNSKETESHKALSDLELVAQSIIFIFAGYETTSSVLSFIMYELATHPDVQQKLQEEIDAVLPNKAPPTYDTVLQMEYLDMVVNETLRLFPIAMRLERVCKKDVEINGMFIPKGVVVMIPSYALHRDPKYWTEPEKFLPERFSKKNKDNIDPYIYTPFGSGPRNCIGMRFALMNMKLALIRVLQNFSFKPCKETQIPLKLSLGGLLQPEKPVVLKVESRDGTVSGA
Sequence of 5-hydroxytryptamine receptor 4 (O70528 whole entry): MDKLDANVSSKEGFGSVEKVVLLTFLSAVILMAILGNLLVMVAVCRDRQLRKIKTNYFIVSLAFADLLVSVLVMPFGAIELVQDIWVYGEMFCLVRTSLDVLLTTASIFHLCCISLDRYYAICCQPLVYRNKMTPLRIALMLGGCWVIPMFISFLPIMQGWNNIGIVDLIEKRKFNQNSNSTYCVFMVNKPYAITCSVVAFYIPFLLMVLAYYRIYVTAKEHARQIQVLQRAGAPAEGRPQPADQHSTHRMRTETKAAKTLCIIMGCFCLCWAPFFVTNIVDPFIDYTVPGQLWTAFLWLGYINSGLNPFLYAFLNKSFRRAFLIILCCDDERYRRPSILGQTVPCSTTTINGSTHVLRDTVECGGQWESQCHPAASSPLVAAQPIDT

As to `Nn1nnc2ccccc21`, the IC50 result (against Cathepsin G; against Cytochrome P450 3A4; in data set [1]; against Melanocortin receptor 3; in data set [2]; in data set [3]) was “Not Active” throughout. Further, the Ki entry at Cytochrome P450 3A4 is on record as “Not Active”.

As to `CC[C@]1(O)CC[C@H]2[C@@H]3CCC4=CCCC[C@@H]4[C@H]3CC[C@@]21C`, the IC50 result (against Cathepsin G; against Cytochrome P450 3A4; in data set [1]; against Melanocortin receptor 3; in data set [2]; in data set [3]) was “Not Active” in each case. In addition, the Ki entry on Cytochrome P450 3A4 is given as “Not Active”.

As to `N[C@@H](Cc1ccc(F)cc1)C(=O)O`, the IC50 result (on Cathepsin G; in data set [1]; against Melanocortin receptor 3; in data set [2]; in data set [3]) was “Not Active” throughout.

On to `CCOC(=O)[C@H](CCc1ccccc1)N[C@@H](C)C(=O)N1Cc2ccccc2C[C@H]1C(=O)O`, for which the IC50 entry (against Cathepsin G; against Cytochrome P450 3A4; in data set [1]; on Melanocortin receptor 3; in data set [2]; in data set [3]) was “Not Active” in each case. In addition, at Cytochrome P450 3A4, the Ki entry is reported as “Not Active”.

In the case of `O=C(c1ccccc1Cl)N1CCC(Cc2ccccc2)CC1`, the IC50 entry (against Cathepsin G; on Cytochrome P450 3A4; in data set [1]; against Melanocortin receptor 3; in data set [2]; in data set [3]) was “Not Active” throughout. For the same compound, the Ki result on Cytochrome P450 3A4 was “Not Active”.

`CCOC(=O)[C@H](CCc1ccccc1)N[C@@H](C)C(=O)N1CCC[C@H]1C(=O)O`: the IC50 result (against Cathepsin G; against Cytochrome P450 3A4; in data set [1]; against Melanocortin receptor 3; in data set [2]; in data set [3]) was “Not Active” throughout. In addition, the Ki result on Cytochrome P450 3A4 is reported as “Not Active”.

As to `Clc1cc2c(cc1Cl)Oc1cc(Cl)c(Cl)cc1O2` [2,3,7,8-TETRACHLORODIBENZO-P-DIOXIN], the concentration for half-maximal inhibition (IC50) entry (against Cathepsin G; on Cytochrome P450 3A4; in data set [1]; against Melanocortin receptor 3; in data set [2]; in data set [3]) was “Not Active” each time. Also, at Cytochrome P450 3A4, the Ki result was “Not Active”.

On to `C=C1/C(=C\C=C2/CCC[C@]3(C)[C@@H]([C@H](C)CCCC(C)C)CC[C@@H]23)C[C@@H](O)C[C@@H]1O` [ALFACALCIDOL], for which the IC50 entry (against Cathepsin G; against Cytochrome P450 3A4; in data set [1]; on Melanocortin receptor 3; in data set [2]; in data set [3]) was “Not Active” each time. For the same compound, the Ki entry on Cytochrome P450 3A4 is given as “Not Active”.

Turning to `CCCCCC[C@H]1C(=O)O[C@H](C)[C@H](NC(=O)c2cccc(NC=O)c2O)C(=O)O[C@@H](C)[C@@H]1OC(=O)CC(C)C` [ANTIMYCIN A], the IC50 result (against Cathepsin G; against Cytochrome P450 3A4; in data set [1]; at Melanocortin receptor 3; in data set [2]; in data set [3]) was “Not Active” each time. The Ki entry on Cytochrome P450 3A4 is “Not Active”.

Consider `C[C@@H]1CC[C@H]2[C@@H](C)C(=O)O[C@@H]3O[C@@]4(C)CC[C@@H]1[C@]32OO4` [ARTEMISININ], for which the IC50 result (against Cathepsin G; in data set [1]; at Melanocortin receptor 3; in data set [2]; in data set [3]) was “Not Active” in each case.

Take `CO[C@H]1[C@@H](O)[C@H](N)[C@@H](O[C@H]2O[C@H]([C@H](C)N)CC[C@H]2N)[C@H](O)[C@@H]1N(C)C(=O)CN` [ASTROMICIN]: the IC50 entry (at Cathepsin G; against Cytochrome P450 3A4; in data set [1]; against Melanocortin receptor 3; in data set [2]; in data set [3]) was “Not Active” each time. For the same compound, at Cytochrome P450 3A4, the Ki entry is “Not Active”.

For `[N-]=[N+]=CC(=O)OC[C@H](N)C(=O)O` [AZASERINE], the IC50 entry (against Cathepsin G; against Cytochrome P450 3A4; in data set [1]; against Melanocortin receptor 3; in data set [2]; in data set [3]) was “Not Active” throughout. Moreover, the Ki result on Cytochrome P450 3A4 is given as “Not Active”.

As to `CC[C@H]1OC(=O)[C@H](C)[C@@H](O[C@H]2C[C@@](C)(OC)[C@@H](O)[C@H](C)O2)[C@H](C)[C@@H](O[C@@H]2O[C@H](C)C[C@H](N(C)C)[C@H]2O)[C@](C)(O)C[C@@H](C)CN(C)[C@H](C)[C@@H](O)[C@]1(C)O` [AZITHROMYCIN], the IC50 result (on Cathepsin G; in data set [1]; against Melanocortin receptor 3; in data set [2]; in data set [3]) was “Not Active” each time.

On to `CC(C)(C)c1ccc(S(=O)(=O)/C=C/C#N)cc1` [BAY-11-7085], for which the IC50 result (against Cathepsin G; against Cytochrome P450 3A4; in data set [1]; against Melanocortin receptor 3; in data set [2]; in data set [3]) was “Not Active” each time. Besides, the Ki result on Cytochrome P450 3A4 was “Not Active”.

On to `CC(C)C[C@H]1C(=O)N2CCC[C@H]2[C@]2(O)O[C@](NC(=O)[C@@H]3C=C4c5cccc6[nH]c(Br)c(c56)C[C@H]4N(C)C3)(C(C)C)C(=O)N12` [BROMOCRIPTINE], for which the IC50 result (against Cathepsin G; in data set [1]; on Melanocortin receptor 3; in data set [3]) was “Not Active” each time.

With `CCC[C@@H]1C[C@@H](C(=O)N[C@@H]([C@H]2O[C@H](SC)[C@H](O)[C@@H](O)[C@H]2O)[C@H](C)Cl)N(C)C1` [CLINDAMYCIN], the IC50 result (at Cathepsin G; in data set [1]; on Melanocortin receptor 3; in data set [2]; in data set [3]) was “Not Active” each time.

As for `CN1C(=O)CN=C(c2ccccc2)c2cc(Cl)ccc21` [DIAZEPAM], the concentration for half-maximal inhibition (IC50) entry (on Cathepsin G; in data set [1]; against Melanocortin receptor 3; in data set [2]; in data set [3]) was “Not Active” in each case.

`CN1C[C@H](C(=O)N[C@]2(C)O[C@@]3(O)[C@@H]4CCCN4C(=O)[C@H](Cc4ccccc4)N3C2=O)C[C@@H]2c3cccc4[nH]cc(c34)C[C@H]21` [DIHYDROERGOTAMINE]: the IC50 entry was “Not Active” at Cathepsin G, 940 nM in data set [1] (read-out: IC50), “Not Active” on Melanocortin receptor 3 and “Not Active” in data set [3]. In addition, the inhibition constant Ki in data set [1] (read-out: Ki) turned out to be 157 nM.

Consider `CCOC(=O)C1=C(C)NC(C)=C(C(=O)OC)C1c1cccc(Cl)c1Cl` (configuration not stated) [FELODIPINE], for which the IC50 entry (at Cathepsin G; in data set [1]; on Melanocortin receptor 3; in data set [2]; in data set [3]) was “Not Active” in each case.

Consider `Cc1cn[nH]c1` [FOMEPIZOLE], for which the IC50 entry (on Cathepsin G; in data set [1]; against Melanocortin receptor 3; in data set [2]; in data set [3]) was “Not Active” throughout.

Consider `Cc1cnc(C(=O)NCCc2ccc(S(=O)(=O)NC(=O)NC3CCCCC3)cc2)cn1` [GLIPIZIDE], for which the IC50 entry (on Cathepsin G; in data set [1]; on Melanocortin receptor 3; in data set [2]; in data set [3]) was “Not Active” each time.

On to `COc1ccccc1OCC(O)CO` (configuration not stated) [GUAIFENESIN], for which the IC50 entry (against Cathepsin G; in data set [1]; at Melanocortin receptor 3; in data set [2]; in data set [3]) was “Not Active” in each case.

Regarding `N=C(N)N/N=C/c1c(Cl)cccc1Cl` [GUANABENZ], the IC50 result (against Cathepsin G; at Cytochrome P450 3A4; in data set [1]; against Melanocortin receptor 3; in data set [3]) was “Not Active” in each case. Besides, the Ki result at Cytochrome P450 3A4 is “Not Active”.

As for `C/C=C\c1ccc(O)c(OC)c1` [ISOEUGENOL], the half-inhibitory concentration (IC50) result (against Cathepsin G; in data set [1]; against Melanocortin receptor 3; in data set [2]; in data set [3]) was “Not Active” throughout.

Take `CC[C@H](C)C(=O)O[C@H]1C[C@@H](C)C=C2C=C[C@H](C)[C@H](CC[C@@H]3C[C@@H](O)CC(=O)O3)[C@H]21` [LOVASTATIN]: the IC50 result (on Cathepsin G; in data set [1]; at Melanocortin receptor 3; in data set [2]; in data set [3]) was “Not Active” throughout.

Turning to `OCCN1CCN(CCCN2c3ccccc3Sc3ccc(Cl)cc32)CC1` [PERPHENAZINE], the IC50 entry (against Cathepsin G; in data set [1]; against Melanocortin receptor 3; in data set [2]; in data set [3]) was “Not Active” in each case.

The record behind these values is ChEMBL document CHEMBL1909046, “DrugMatrix in vitro pharmacology data”.
